Experimental data reported in patent publication US20250060373A1, “NOVEL ASSAY AND NOVEL METHODS OF TREATING HUTCHINSON-GILFORD PROGERIA SYNDROME” (The Progeria Research Foundation, priority 2021, published 2025).

Assays:
[1] = test system: plasma progerin; experiment: Plasma progerin (SMC Progerin Immunoassay) in HGPS clinical trial patients on therapy; format: in vivo, human
Excerpt: An SMC ultrasensitive immunoassay for the detection of plasma progerin was developed. Overall, the assay employed a sandwich immunoassay format with an anti-lamin A capture antibody coated on magnetic microparticles, and an anti-progerin specific detection antibody conjugated to a fluorescent tag (FIG. 1) run in a 96-well plate. Progerin-bound detection antibody was eluted and read as single molecules using a confocal laser.
The SMC assay for measuring Progerin was as previously described (Todd et al.), except that magnetic microparticles (MP) coated with capture antibodies and detection reagents were specific to the progerin assay (FIG. 1). […] Progerin-bound detection antibody was then eluted by pH shift using a proprietary glycine buffer, transferred to a new plate and detected by SMC using the Erenna Immunoassay System software (SgxLink™). The raw signal data and the interpolated value data obtained from SgxLink were transferred to Excel where precision was then calculated for the replicate wells. […]
For analysis, samples were fully thawed at RT for <5 min, lightly mixed, diluted in standard diluent before transferring into filter plate wells (MilliporeSigma MSBVN1210). […] Filtrate was then assessed as described. […]

[2] = test system: children with HGPS; details: children with HGPS treated with lonafarnib in clinical trials; cited from earlier work

**Q.** Which results are given for `NC(=O)N1CCC(CC(=O)N2CCC([C@H]3c4ncc(Br)cc4CCc4cc(Cl)cc(Br)c43)CC2)CC1` [lonafarnib]?
**A.** average progerin, lonafarnib monotherapy extension visits versus consecutive Triple Therapy visits ([1]; 10 patients, extension of additional 4.1±0.5 years, p=0.99): no significant differences; progerin at 150 mg/m^2 versus the 115 mg/m^2 dose ([1]; ProLon1, each of the 4 trial visits after the 8-month visit, N=22-25, all p<0.05): significantly decreased; increased survival, estimated, on average [2]: 2.5 years
